These results are taken from PubChem BioAssay (NCI).

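Protocol summary: plate cells (96-well), add compound at 5 concentrations, incubate 48 h, interpolate endpoints linearly. GI50 is the concentration that inhibits growth by half. The concentration for full growth arrest is given as TGI.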

Common to all, as to assay: inhibition of tumour cell growth, NCI panel, 48 h
For assay [1], the system named is HCT-15 colon.
For assay [2], the system named is SF-295 CNS.
The subject of assay [3] is OVCAR-8 ovarian.
Assay [4] relates to SK-MEL-5 melanoma.
In assay [5] the test system is SR leukemia.
Assay [6] has as its system OVCAR-4 ovarian.
For assay [7], the system named is U251 CNS.
The test system of assay [8] is 786-0 renal.
Assay [9] concerns MALME-3M melanoma.
Assay [10] deals with HL-60(TB) leukemia.

Consider `COc1cccc2[nH]c(-c3ccccn3)nc12`, for which the TGI in assay [1], in [2], in assay [3], in assay [4], in [5] and in assay [6] was above 100 µM each time. Besides, the TGI in assay [7], in assay [8] and in [9] was above 100 µM throughout.

As to `O=C(c1ccccc1)c1nc2ccc(C(F)(F)F)cc2[n+]([O-])c1C(F)(F)F`, the GI50 was 35.1 µM in [1]; 19.7 µM in [2]; 38.7 µM in [3]; 17.5 µM in assay [4]; 22.4 µM in assay [6]; 50.3 µM in assay [7]. Further, the figures for the GI50 in assay [8], in assay [9] and in assay [10] were 48 µM, 47.6 µM and 19 µM, respectively. Further, the TGI in [1] is above 100 µM; in assay [2] it was above 100 µM; in assay [3], above 100 µM; in [4] it was 48 µM; in [6] it was above 100 µM; in assay [7], above 100 µM. Besides, the TGI was above 100 µM in [8], above 100 µM in assay [9] and 52.5 µM in assay [10].

Take `O=[N+]([O-])c1ccc(Sc2c3ccccc3nc3ccccc23)nc1`: the TGI in assay [1] is 12.1 µM; in [2] it was 51.1 µM; in assay [3] it was above 49.3 µM; in assay [4] it was 30.7 µM; in assay [5], above 21.3 µM; in assay [6], 12.9 µM. In addition, the values for the TGI in assay [7], in [8] and in [9] were 46.3 µM, 4.25 µM and 6.09 µM, respectively.

Regarding `c1ccc(COCC2OC3c4ccccc4COC3C2OCc2ccccc2)cc1` (stereo unspecified), the TGI in assay [1], in assay [2], in assay [3], in assay [4], in assay [5] and in [6] was above 100 µM throughout. Further, the TGI in assay [7], in assay [8] and in assay [9] was above 100 µM throughout.

With `O=C(CCCCCCSc1nc(-c2ccc(Cl)cc2)cc(-c2ccc(Cl)cc2)n1)NO`, the GI50 was 1.76 µM in assay [1]; 2.34 µM in [2]; 1.43 µM in assay [3]; 1.19 µM in [4]; 1.57 µM in assay [6]; 1.63 µM in [7]. The results for the GI50 in assay [8], in assay [9] and in assay [10] were 1.59 µM, 1.16 µM and 1.97 µM, respectively. Also, the TGI was above 50 µM in assay [1]; 9.84 µM in [2]; 8.1 µM in assay [3]; 2.74 µM in assay [4]; above 50 µM in assay [6]; 6.08 µM in [7]. The TGI in assay [8] is 6.32 µM; in assay [9], 4.45 µM; in assay [10], above 50 µM.

On to `CNCCCNc1nc2ccccc2c2c(=O)c3cc(Cl)ccc3sc12`, for which the GI50 was 1.5 µM in assay [1]; 1.74 µM in assay [2]; 2.13 µM in [4]; 1.71 µM in assay [8]; 1.87 µM in assay [9]. The TGI was 2.92 µM in assay [1]; 3.27 µM in assay [2]; 5.25 µM in assay [4]; 3.2 µM in assay [8]; 3.62 µM in [9].

For `CCCCCC/C=C\CCCCCCCCCC1=CC(=O)C=C(OC)C1=O`, the TGI in assay [1] stood at 11.1 µM; in [2] it was 13.2 µM; in [3], 12.5 µM; in assay [4], 5.54 µM; in assay [5], 20.2 µM; in assay [6], 9.22 µM. Further, the TGI in assay [7] was found to be 13.6 µM; in assay [8], 17 µM; in assay [9], 29.4 µM.

As to `COc1cc(-c2cc(=O)c3cc(C)c(C)c(C(=O)O)c3o2)cc(OC)c1OC`, the TGI in assay [1], in assay [2], in assay [3], in assay [4], in assay [6] and in [7] was above 100 µM each time. For the same compound, the TGI in assay [8] and in assay [9] was above 100 µM each time.

Regarding `Cn1c2c(c3ccccc31)CCN(CCCCN1CCN(c3cccc(Cl)c3)CC1)C2=O`, the TGI came out at 29.7 µM in assay [1]; 34 µM in [2]; 48 µM in assay [3]; 21.8 µM in [4]; 32.2 µM in [6]; 24.6 µM in [7]. Besides, the TGI in assay [8] amounted to 29.6 µM; in [10], 18.9 µM.

On to `O=C(CC(=O)C1CCOC1=O)C(=O)Nc1ccc(Cl)cc1Cl` (stereo unspecified), for which the TGI in assay [1], in assay [2], in assay [3], in assay [4], in assay [6] and in assay [7] was above 100 µM throughout. The TGI in assay [8], in [9] and in [10] was above 100 µM in each case.

As for `COc1ccc(CNc2nc3c(NC(C)=O)cc(C(F)(F)F)cc3nc2-c2ccccc2)cc1OC`, the TGI was above 100 µM in assay [1]; above 100 µM in assay [2]; above 100 µM in [3]; above 100 µM in [4]; 95.7 µM in assay [6]; above 100 µM in [7]. Moreover, the TGI in [8], in assay [9] and in assay [10] was above 100 µM throughout.

As for `O=C(Oc1ccccc1Cl)c1ccccc1Nc1ccnc(C(F)(F)F)c1`, the GI50 in assay [1] is 0.219 µM; in assay [2] it was 0.27 µM; in [3], 0.366 µM; in [4], 0.264 µM; in assay [5] it was 0.0282 µM; in assay [7], 0.271 µM. The GI50 in assay [8] is 0.859 µM; in assay [10], 0.472 µM. Also, the TGI in assay [1] is 0.538 µM; in assay [2], 1.09 µM; in assay [3], 14.3 µM; in assay [4], 0.545 µM; in assay [5], above 100 µM; in assay [7], 0.808 µM. For the same compound, the values for the TGI in [8] and in [10] were 2.39 µM and above 100 µM, respectively.

With `COC1=Nc2ccccc2S(=O)(=O)C=C1`, the TGI in assay [1] was 7.89 µM; in assay [2], above 88.1 µM; in assay [3] it was 19.5 µM; in assay [4], 24.5 µM; in assay [6], 27.8 µM; in [7] it was 24.4 µM. Also, the values for the TGI in assay [8] and in [9] were 10.1 µM and 6.84 µM, respectively. For the same compound, the GI50 in assay [10] was 1.95 µM.
